According to BindingDB's records for patent US11746110 (Shenzhen Targetrx, 2023):
pIC50: −log10 of the molar value.

Target: Tyrosine-protein kinase ABL1 (Homo sapiens, UniProt P00519)
Assay: Biochemical Kinase Assay
Experimental: Reagents and materials: ABL (ThermoFisher, Cat. No. PV3585), ABL T315I(Thermo Fisher, Cat. No. PR7429B), Ret (Carna, Cat. No. 08-159-10 ug), RETV804M, Active (Signalchem, Cat. No. R02-12GG), ATP (Sigma, Cat. No. A7699-1G), DMSO (Sigma, Cat. No. D2650), 96-well plate (Corning, Cat. No. 3365), 384-well plate (Greiner, Cat. No. 784076), buffer solution (Thermo Fisher, Cat. No. PR4876B). Specific Assay Method: Compound formulation: The test compounds were dissolved in DMSO to prepare a 20 mM stock solution. Before use, the compounds were diluted in DMSO to 0.1 mM, and diluted into 11 concentrations with a 3-fold gradient. When addition, dilutions of 4-fold final concentration were then made with buffer solution. Kinase assay method: After preparing the buffer, the enzyme was mixed with pre-formulated and diluted compounds of different concentrations in duplicate for each concentration, and placed at room temperature for 30 minutes. The corresponding substrate and ATP were added thereto,and reacted at room temperature for 60 minutes (both a negative and a positive control were set). After the reaction, antibody was added for detection, Envision detection was carried out after 60 minutes incubation at room temperature, and data was collected. Data analysis and fitting were made according to XLfit5 software.

Tyrosine-protein kinase ABL1, sequence (P00519 whole entry): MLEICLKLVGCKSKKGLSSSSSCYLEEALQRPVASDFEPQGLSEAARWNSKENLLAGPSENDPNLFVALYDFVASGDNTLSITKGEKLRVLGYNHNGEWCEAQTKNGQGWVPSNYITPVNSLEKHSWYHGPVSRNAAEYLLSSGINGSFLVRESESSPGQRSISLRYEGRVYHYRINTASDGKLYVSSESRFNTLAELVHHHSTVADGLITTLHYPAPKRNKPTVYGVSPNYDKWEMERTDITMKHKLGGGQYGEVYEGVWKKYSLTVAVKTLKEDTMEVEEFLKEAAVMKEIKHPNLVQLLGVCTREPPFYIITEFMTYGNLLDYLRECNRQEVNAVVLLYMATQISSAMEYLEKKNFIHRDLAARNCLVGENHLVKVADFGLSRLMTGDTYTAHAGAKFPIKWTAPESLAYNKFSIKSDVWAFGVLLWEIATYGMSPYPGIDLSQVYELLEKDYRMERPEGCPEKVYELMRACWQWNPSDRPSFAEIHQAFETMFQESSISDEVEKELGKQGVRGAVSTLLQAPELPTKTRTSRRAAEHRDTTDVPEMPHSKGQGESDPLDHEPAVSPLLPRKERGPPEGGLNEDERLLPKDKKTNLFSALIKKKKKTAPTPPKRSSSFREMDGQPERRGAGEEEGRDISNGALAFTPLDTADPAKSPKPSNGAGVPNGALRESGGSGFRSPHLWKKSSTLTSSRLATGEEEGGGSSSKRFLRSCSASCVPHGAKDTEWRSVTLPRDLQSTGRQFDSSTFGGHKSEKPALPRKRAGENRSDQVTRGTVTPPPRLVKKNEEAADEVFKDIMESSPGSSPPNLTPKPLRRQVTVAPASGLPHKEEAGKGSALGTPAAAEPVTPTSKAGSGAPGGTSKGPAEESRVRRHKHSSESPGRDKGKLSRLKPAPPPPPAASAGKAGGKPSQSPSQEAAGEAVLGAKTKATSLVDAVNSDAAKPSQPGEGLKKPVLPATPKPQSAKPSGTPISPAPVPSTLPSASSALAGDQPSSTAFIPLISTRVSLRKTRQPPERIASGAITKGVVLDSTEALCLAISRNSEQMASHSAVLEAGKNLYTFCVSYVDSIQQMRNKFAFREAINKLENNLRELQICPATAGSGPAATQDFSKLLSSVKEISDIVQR

Row | pIC50 | SMILES
1 | 7.08 | Cc1ccc(NC(=O)Nc2ccc(Cl)c(C(F)(F)F)c2)cc1C#Cc1cnc2c(Nc3cnn(C)c3)ccnn12 [US11746110, Example 16]
2 | 7.49 | Cc1ccc(NC(=O)Nc2ccc(Cl)c(C(F)(F)F)c2)cc1C#Cc1cnc2c(Nc3cnn(C)c3)nccn12 [US11746110, Example 7]
